Test results reported in patent publication US12532888B2, “Methods and uses of a mixture comprising alpha-cypermethrin and dinotefuran for combating or controlling mosquitoes” (priority 2020, dated 2026).

System: yellow fever mosquitoes (Aedes aegypti)
Test: whole plant or invertebrate
Details: for Colby Expected: 3 days after exposure
Experimental: Glass vials (20 mL scintillation) were treated with 445 μL of varying concentrations of α-cypermethrin dissolved in acetone, respectively dinotefuran or mixtures of α-cypermethrin and dinotefuran in the indicated ratios. Vials were turned on their sides and placed on an automated roller table. The vials were rolled (6 rpm) uncapped to allow an even coating of the treatment.
After rolling, vials were allowed to completely dry for at least an hour. Each treatment was replicated five times. Prior to exposure, yellow fever mosquitoes (Aedes aegypti) were incapacitated using a chill table. Approximately six mosquitoes were placed into each vial and were exposed to treatments at room temperature for exactly one hour. A small amount of CO2 was used to incapacitate the mosquitoes to facilitate removal from treatment. Insects were then transferred to 16 oz plastic holding containers. A cotton wick moistened with 10% sugar water was provided in each container. Holding containers were moved into an incubator with environmental conditions of 27° C. and 80% relative humidity. Wicks were rehydrated daily and mortality was assessed at 3 days after exposure (DAE).
Ataxia+mortality data were used to determine whether there was a synergistic effect in the combined use of dinotefuran and α-cypermethrin.
Abbott's correction for control mortality and the Colby method for testing synergy were used to analyze combination data. […] Colby's expected mortality per combination observation=% mortality (A)+% mortality (B)−(% mortality (A)×% mortality (B))/100. Synergy ratio=% observed mortality/% Colby expected mortality.
Additive interactions have synergy ratios equal to 1, antagonistic interactions have synergy ratios of less than 1, and synergistic interactions have synergy ratios of greater than 1.

Question: What does the source list for `CC1(C)C(C=C(Cl)Cl)C1C(=O)OC(C#N)c1cccc(Oc2ccccc2)c1` (racemic) [Alpha-cypermethrin, racemate comprising (R)-α-cyano-3-phenoxybenzyl (1S, 3S)-3-(2,2-dichlorovinyl)-2,2-dimethylcyclopropanecarboxylate; (S)-α-cyano-3-phenoxybenzyl (1R, 3R)-3-(2,2-dichlorovinyl)-2,2-dimethylcyclopropanecarboxylate]?
Answer: mortality at 0.00732 mg/m2 (Aedes aegypti, 72 h): 13.9%; Colby Expected (Table 1, expected mortality of the combination 0.00732 + 0.0732 mg/m^2 by Colby's formula): 13.9%; Colby Expected (Table 2, expected mortality of the combination 0.00732 + 7.32 mg/m^2 by Colby's formula): 13.9%

Question: What does the source list for `CNC(=N[N+](=O)[O-])NCC1CCOC1` (racemic) [Dinotefuran, (RS)-1-methyl-2-nitro-3-(tetrahydro-3-furylmethyl) guanidine]?
Answer: mortality at 0.0732 mg/m2 (Aedes aegypti, 72 h): 0%; mortality at 7.32 mg/m2 (Aedes aegypti, 72 h): 0%
